Where two headings read alike, the source gives them in different places.
What was measured:
MAPKAPK2 (MK-2) = MAPKAPK2 (MK-2) (Homo sapiens, UniProt P49137); test: Determination of MK-2 IC50 (HSP-peptide phosphorylation, anion exchange resin capture assay); type: biochemical
How it was run: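 MAPKAPK2, preactivated by p38α with 0.25 mM ATP for 1 h at 30° C, used at 15 nM to phosphorylate HSP-peptide with 0.03 mM ATP plus [γ33P]ATP, pH 7.5, 2% DMSO, 30 min at 30° C. Labelled peptide counted after anion-exchange resin capture; IC50 from six ten-fold dilutions, triplicate.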

MK-3 = MK-3 (Homo sapiens, UniProt Q16644); test: MK-3 inhibition IC50 (similar method to MK-2, with appropriate modifications); type: biochemical; conditions: read-out: MK-3 Avg. IC50
[1] = Table 2, pyrazolylpyrazole MK-2 inhibitors, read-out: MK-2 Avg. IC50
[2] = Table 2, pyrazolylpyrazole MK-2 inhibitors
[3] = Table 1, phenoxypyrazole MK-2 inhibitors, read-out: MK-2 Avg, IC50
[4] = Table 1, phenoxypyrazole MK-2 inhibitors

Sequence of MK-3 (Q16644 whole entry, species assumed): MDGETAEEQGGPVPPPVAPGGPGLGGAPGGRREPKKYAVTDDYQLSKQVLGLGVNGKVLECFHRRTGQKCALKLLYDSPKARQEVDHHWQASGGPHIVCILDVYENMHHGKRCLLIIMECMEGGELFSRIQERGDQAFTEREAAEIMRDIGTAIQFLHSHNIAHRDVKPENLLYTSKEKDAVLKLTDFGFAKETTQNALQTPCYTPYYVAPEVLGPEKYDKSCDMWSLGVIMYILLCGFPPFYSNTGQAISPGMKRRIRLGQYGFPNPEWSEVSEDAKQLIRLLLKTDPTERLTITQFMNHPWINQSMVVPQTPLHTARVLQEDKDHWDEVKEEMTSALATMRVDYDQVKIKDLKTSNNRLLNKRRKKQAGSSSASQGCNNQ
Sequence of MAPKAPK2 (MK-2) (P49137 whole entry, species assumed): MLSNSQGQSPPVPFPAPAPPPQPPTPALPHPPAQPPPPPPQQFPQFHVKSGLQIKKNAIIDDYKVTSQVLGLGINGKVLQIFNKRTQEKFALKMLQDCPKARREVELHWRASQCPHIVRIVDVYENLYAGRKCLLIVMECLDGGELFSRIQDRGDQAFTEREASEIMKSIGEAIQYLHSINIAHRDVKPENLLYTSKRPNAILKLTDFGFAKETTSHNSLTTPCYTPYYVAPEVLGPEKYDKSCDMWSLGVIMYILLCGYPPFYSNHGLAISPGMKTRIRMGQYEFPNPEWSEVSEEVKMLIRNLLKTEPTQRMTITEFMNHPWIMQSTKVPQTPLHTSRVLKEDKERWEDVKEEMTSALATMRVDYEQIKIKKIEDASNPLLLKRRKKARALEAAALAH

IC50 (MK-3; [2]) [µM] | IC50 (MAPKAPK2 (MK-2); read-out: MK-2 Avg. IC50) [µM] | IC50 (MK-3) [µM] | Compound | also measured
145 | – | – | CCOCn1ncc2c1CCc1c-2n[nH]c1C(N)=O [Example 46] | IC50 (MAPKAPK2 (MK-2); [1]): ≥ 200 µM
– | 0.325 | 10.7 | O=C(O)c1c2c(nn1CCCNCCc1ccc(Br)cc1)-c1ccncc1CC2 [Example 46] | –
≥ 200 | – | – | CCOC(=O)c1[nH]nc2c1CCc1c-2cnn1-c1ccccc1 [Example 47] | IC50 (MAPKAPK2 (MK-2); [1]): ≥ 200 µM
– | 0.347 | 6.59 | O=C(O)c1c2c(nn1CCCNCCc1ccc(Cl)cc1Cl)-c1ccncc1CC2 [Example 47] | –
– | – | – | CC1Cc2c(n[nH]c2C(=O)O)-c2ccc(O)cc21 (centres unmarked) [Example 48] | IC50 (MAPKAPK2 (MK-2); [3]): 97.1 µM; IC50 (MK-3; [4]): > 200 µM
≥ 200 | – | – | CNC(=O)c1nn(-c2ccc(S(N)(=O)=O)cc2)c2c1CCc1c-2cnn1Cc1ccccc1 [Example 48] | IC50 (MAPKAPK2 (MK-2); [1]): ≥ 200 µM
– | 0.374 | 4.51 | O=C(O)c1c2c(nn1CCCNS(=O)(=O)Cc1ccccc1)-c1cc(-c3cnc4ccccc4c3)ncc1CC2 [Example 48] | –
– | – | – | COc1cc2c(cc1-c1ccc(Cl)cc1)-c1nn(CCCNC(=O)OC(C)(C)C)c(C(=O)O)c1CC2 [Example 49] | IC50 (MAPKAPK2 (MK-2); [3]): 98.1 µM; IC50 (MK-3; [4]): 161 µM
≥ 200 | – | – | Cn1ncc2c1CCc1c-2n[nH]c1C(N)=O [Example 49] | IC50 (MAPKAPK2 (MK-2); [1]): ≥ 200 µM
– | 0.427 | 45.8 | NCC1Cn2nc3c(c2C(=O)N1)CCc1cnccc1-3 (centres unmarked) [Example 49] | –
≥ 200 | – | – | CCOC(=O)c1[nH]nc2c1CCc1c-2cnn1C [Example 50] | IC50 (MAPKAPK2 (MK-2); [1]): ≥ 200 µM
≥ 200 | – | – | NC(=O)c1[nH]nc2c1CCc1c-2cnn1-c1ccccc1 [Example 51] | IC50 (MAPKAPK2 (MK-2); [1]): ≥ 200 µM
– | 0.473 | 9.21 | NCCCn1nc2c(c1C(N)=O)CCc1cnc(-c3cnc4ccccc4c3)cc1-2 [Example 51] | –
≥ 200 | – | – | CNC(=O)c1nn(-c2ccc(S(N)(=O)=O)cc2)c2c1CCc1[nH]ncc1-2 [Example 52] | IC50 (MAPKAPK2 (MK-2); [1]): ≥ 200 µM
– | – | – | COc1cc2c(cc1-c1ccccc1Cl)-c1nn(CCCNC(=O)OC(C)(C)C)c(C(=O)O)c1CC2 [Example 52] | IC50 (MAPKAPK2 (MK-2); [3]): 109 µM; IC50 (MK-3; [4]): > 200 µM
– | 0.479 | 34.3 | O=C(O)c1c2c(nn1CCCNCCCc1ccc(Cl)cc1)-c1ccncc1CC2 [Example 52] | –
– | – | – | CCOC(=O)c1[nH]nc2c1CCc1c-2ccc(O)c1Br [Example 53] | IC50 (MAPKAPK2 (MK-2); [3]): 116 µM; IC50 (MK-3; [4]): > 200 µM

IC50 (MK-3; [2]) [µM] | IC50 (MAPKAPK2 (MK-2); read-out: MK-2 Avg. IC50) [µM] | IC50 (MK-3) [µM] | Compound | also measured
– | 0.483 | 4.92 | CN(C)c1cccc(-c2cc3c(cn2)CCc2c-3nn3c2C(=O)NCCC3)c1 [Example 53] | –
≥ 200 | – | – | NC(=O)c1nn(-c2ccccc2)c2c1CCc1c-2cnn1Cc1ccccc1 [Example 53] | IC50 (MAPKAPK2 (MK-2); [1]): ≥ 200 µM
≥ 200 | – | – | CCOC(=O)c1nn(-c2ccccc2)c2c1CCc1c-2cnn1Cc1ccccc1 [Example 55] | IC50 (MAPKAPK2 (MK-2); [1]): ≥ 200 µM
– | – | – | Cc1noc(C)c1-c1cc2c(cc1O)CCc1c-2nn(CCCN)c1C(=O)O [Example 55] | IC50 (MAPKAPK2 (MK-2); [3]): 136 µM; IC50 (MK-3; [4]): 169 µM
– | 0.522 | 11.2 | O=C(O)c1c2c(nn1CCCNCCc1ccc(-c3cccnc3)cc1)-c1ccncc1CC2 [Example 55] | –
– | – | – | C=CCC1Cc2c(C(N)=O)n[nH]c2-c2ccc(O)cc21 (centres unmarked) [Example 56] | IC50 (MAPKAPK2 (MK-2); [3]): 139 µM; IC50 (MK-3; [4]): > 200 µM
– | 0.551 | 7.86 | O=C(O)c1c2c(nn1CCCNCCc1ccc(Cl)cc1)-c1ccncc1CC2 [Example 56] | –
– | – | – | COc1cc2c(cc1-c1cccc(S(C)(=O)=O)c1)-c1nn(CCCNC(=O)OC(C)(C)C)c(C(=O)O)c1CC2 [Example 57] | IC50 (MAPKAPK2 (MK-2); [3]): 143 µM; IC50 (MK-3; [4]): > 200 µM
– | 0.559 | 8.85 | O=C(O)c1c2c(nn1CCCNCCc1ccc(Cl)s1)-c1ccncc1CC2 [Example 57] | –
– | – | – | COc1cc2c(cc1-c1cccn1C(=O)OC(C)(C)C)-c1nn(CCCNC(=O)OC(C)(C)C)c(C(=O)O)c1CC2 [Example 58] | IC50 (MAPKAPK2 (MK-2); [3]): 148 µM; IC50 (MK-3; [4]): > 200 µM
– | 0.561 | 44.3 | N#Cc1ccc(CCCNCCCn2nc3c(c2C(=O)O)CCc2cnccc2-3)cc1 [Example 58] | –
– | – | – | CC1Cc2cc(O)ccc2-c2n[nH]c(C(=O)O)c21 (centres unmarked) [Example 59] | IC50 (MAPKAPK2 (MK-2); [3]): 148 µM; IC50 (MK-3; [4]): > 200 µM
≥ 200 | – | – | CCOC(=O)c1c2c(nn1CCNC(=O)OC(C)(C)C)-c1cnn(C(c3ccccc3)(c3ccccc3)c3ccccc3)c1CC2 [Example 59] | IC50 (MAPKAPK2 (MK-2); [1]): ≥ 200 µM
– | 0.574 | 22.5 | Cc1ccc(C(C)CCNCCCn2nc3c(c2C(=O)O)CCc2cnccc2-3)o1 (centres unmarked) [Example 59] | –
– | – | – | C=CCC1Cc2c(C(=O)O)n[nH]c2-c2ccc(O)cc21 (centres unmarked) [Example 60] | IC50 (MAPKAPK2 (MK-2); [3]): 148 µM; IC50 (MK-3; [4]): > 200 µM
– | 0.575 | 15.6 | O=C(O)c1c2c(nn1CCCNCCc1ccc(-c3csc4ccccc34)cc1)-c1ccncc1CC2 [Example 60] | –

Compound | IC50 (MK-3; [2]) [µM] | IC50 (MAPKAPK2 (MK-2); read-out: MK-2 Avg. IC50) [µM] | IC50 (MK-3) [µM] | also measured
CCOC(=O)c1nn(-c2ccccc2)c2c1CCc1[nH]ncc1-2 [Example 54] | ≥ 200 | – | – | IC50 (MAPKAPK2 (MK-2); MK-2 Avg. IC50 (uM), Table 2, pyrazolylpyrazole MK-2 inhibitors): ≥ 200 µM
